In BigSolDB 2.1:

O=C(O)c1ccccc1
solubility (mole fraction)
Details | in chloroform | in cyclohexane | in ethanol | in n-heptane | in n-pentane | in toluene
278.15 K | 0.074 | – | 0.128 | 0.005 | 0.004 | 0.035
283.15 K | 0.086 | 0.006 | 0.139 | 0.006 | 0.005 | 0.043
293.15 K | 0.114 | 0.009 | 0.166 | 0.01 | 0.007 | 0.062
303.15 K | 0.151 | 0.015 | 0.196 | 0.015 | 0.011 | 0.089
313.15 K | 0.196 | 0.025 | 0.234 | 0.022 | – | 0.128
323.15 K | 0.253 | 0.039 | 0.276 | 0.033 | – | 0.178
